{"source": "ChEMBL document CHEMBL1140912", "about": "“Extra binding region induced by non-zinc chelating inhibitors into the S1' subsite of matrix metalloproteinase 8 (MMP-8)” (J Med Chem, 2009)", "key": {"[1]": {"biological_target": "T1, Interstitial collagenase (Homo sapiens, UniProt P03956)", "T1 sequence (P03956 whole entry)": "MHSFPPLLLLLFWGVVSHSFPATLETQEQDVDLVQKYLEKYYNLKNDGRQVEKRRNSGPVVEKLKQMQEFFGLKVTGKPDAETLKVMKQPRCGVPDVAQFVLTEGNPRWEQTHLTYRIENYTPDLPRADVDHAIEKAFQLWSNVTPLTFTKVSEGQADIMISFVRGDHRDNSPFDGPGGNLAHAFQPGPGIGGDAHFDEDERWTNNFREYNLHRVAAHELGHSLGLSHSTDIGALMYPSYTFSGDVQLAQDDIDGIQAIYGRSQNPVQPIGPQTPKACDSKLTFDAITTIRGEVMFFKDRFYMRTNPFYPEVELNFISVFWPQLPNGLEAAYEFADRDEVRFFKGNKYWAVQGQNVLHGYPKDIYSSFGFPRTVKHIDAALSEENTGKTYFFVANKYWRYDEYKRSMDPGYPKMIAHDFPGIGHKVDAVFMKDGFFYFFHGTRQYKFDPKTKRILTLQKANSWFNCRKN", "assay": "Inhibition of human recombinant MMP1"}, "[2]": {"biological_target": "72 kDa type IV collagenase (Homo sapiens, UniProt P08253)", "sequence (P08253 whole entry)": "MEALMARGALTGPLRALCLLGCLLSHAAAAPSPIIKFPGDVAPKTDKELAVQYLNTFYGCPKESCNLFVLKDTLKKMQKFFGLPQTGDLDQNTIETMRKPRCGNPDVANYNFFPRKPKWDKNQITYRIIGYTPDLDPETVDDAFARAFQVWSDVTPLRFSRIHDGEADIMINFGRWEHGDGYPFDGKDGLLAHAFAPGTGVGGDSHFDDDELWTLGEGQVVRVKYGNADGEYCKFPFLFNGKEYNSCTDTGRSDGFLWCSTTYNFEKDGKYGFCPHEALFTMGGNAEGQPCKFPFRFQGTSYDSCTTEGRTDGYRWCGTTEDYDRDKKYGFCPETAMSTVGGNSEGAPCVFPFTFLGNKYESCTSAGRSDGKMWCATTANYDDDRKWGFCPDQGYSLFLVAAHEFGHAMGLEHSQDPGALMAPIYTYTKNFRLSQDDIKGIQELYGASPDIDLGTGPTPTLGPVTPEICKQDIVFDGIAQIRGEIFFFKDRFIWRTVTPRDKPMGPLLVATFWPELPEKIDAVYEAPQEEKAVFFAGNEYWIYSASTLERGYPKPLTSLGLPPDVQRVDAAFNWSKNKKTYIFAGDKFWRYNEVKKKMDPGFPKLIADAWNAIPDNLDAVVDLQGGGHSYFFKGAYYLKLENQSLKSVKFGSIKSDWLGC", "assay": "Inhibition of human recombinant MMP2"}, "[3]": {"biological_target": "Stromelysin-1 (Homo sapiens, UniProt P08254)", "sequence (P08254 whole entry)": "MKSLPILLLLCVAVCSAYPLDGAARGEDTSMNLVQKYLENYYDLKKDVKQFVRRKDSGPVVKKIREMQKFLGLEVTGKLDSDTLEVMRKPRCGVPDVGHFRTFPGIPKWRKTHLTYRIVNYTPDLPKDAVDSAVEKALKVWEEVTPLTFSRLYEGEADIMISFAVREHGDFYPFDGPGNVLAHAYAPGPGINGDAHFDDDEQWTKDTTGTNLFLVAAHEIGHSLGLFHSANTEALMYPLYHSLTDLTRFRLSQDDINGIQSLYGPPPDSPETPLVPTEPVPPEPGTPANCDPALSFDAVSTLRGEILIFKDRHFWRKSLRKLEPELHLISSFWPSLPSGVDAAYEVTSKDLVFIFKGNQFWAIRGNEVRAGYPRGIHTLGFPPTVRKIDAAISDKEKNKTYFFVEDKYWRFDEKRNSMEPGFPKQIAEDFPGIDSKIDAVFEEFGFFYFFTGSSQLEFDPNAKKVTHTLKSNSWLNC", "assay": "Inhibition of human recombinant MMP3"}, "[4]": {"biological_target": "T2, Matrilysin (Homo sapiens, UniProt P09237)", "T2 sequence (P09237 whole entry)": "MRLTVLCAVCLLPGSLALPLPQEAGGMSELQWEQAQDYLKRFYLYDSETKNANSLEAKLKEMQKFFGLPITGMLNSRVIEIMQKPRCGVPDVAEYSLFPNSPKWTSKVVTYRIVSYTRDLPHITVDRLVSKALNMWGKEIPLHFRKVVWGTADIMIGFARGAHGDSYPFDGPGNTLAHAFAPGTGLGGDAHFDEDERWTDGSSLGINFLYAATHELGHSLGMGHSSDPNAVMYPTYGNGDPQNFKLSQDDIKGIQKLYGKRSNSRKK", "assay": "Inhibition of human recombinant MMP7"}, "[5]": {"biological_target": "Matrix metalloproteinase-9 (Homo sapiens, UniProt P14780)", "sequence (P14780 whole entry)": "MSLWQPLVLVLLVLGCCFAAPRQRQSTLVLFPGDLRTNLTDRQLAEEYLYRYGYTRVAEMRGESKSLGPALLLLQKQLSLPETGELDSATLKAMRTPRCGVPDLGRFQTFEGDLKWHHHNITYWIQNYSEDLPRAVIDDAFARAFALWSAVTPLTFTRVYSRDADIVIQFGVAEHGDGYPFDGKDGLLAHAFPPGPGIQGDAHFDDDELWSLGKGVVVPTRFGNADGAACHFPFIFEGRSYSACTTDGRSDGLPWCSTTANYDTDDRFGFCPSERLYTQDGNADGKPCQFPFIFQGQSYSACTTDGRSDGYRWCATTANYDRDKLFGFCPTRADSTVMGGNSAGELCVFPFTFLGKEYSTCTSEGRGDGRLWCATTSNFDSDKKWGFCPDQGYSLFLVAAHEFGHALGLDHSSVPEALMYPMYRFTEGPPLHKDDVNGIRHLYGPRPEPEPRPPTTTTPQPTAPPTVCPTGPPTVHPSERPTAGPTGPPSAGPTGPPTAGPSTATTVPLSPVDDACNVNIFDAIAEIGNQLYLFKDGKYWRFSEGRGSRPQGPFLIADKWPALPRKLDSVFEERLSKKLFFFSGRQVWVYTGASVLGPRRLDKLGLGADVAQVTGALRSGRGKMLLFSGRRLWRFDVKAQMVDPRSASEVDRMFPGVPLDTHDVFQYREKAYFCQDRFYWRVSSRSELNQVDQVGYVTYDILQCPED", "assay": "Inhibition of human recombinant MMP9"}, "[6]": {"biological_target": "Macrophage metalloelastase (Homo sapiens, UniProt P39900)", "sequence (P39900 whole entry)": "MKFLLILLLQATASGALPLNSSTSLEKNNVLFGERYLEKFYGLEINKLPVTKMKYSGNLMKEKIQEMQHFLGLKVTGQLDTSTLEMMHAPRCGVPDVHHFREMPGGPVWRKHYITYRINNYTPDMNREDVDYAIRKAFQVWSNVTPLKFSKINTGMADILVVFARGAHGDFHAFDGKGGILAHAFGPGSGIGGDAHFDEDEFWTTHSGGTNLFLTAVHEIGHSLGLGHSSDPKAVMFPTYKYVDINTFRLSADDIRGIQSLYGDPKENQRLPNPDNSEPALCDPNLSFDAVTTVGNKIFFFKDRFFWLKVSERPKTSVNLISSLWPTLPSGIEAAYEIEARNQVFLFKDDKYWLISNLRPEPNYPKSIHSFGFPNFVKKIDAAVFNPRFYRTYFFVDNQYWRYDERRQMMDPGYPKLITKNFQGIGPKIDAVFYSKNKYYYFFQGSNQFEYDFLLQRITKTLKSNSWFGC", "assay": "Inhibition of human recombinant MMP12"}, "[7]": {"biological_target": "Collagenase 3 (Homo sapiens, UniProt P45452)", "assay": "Inhibition of human recombinant MMP13"}, "[8]": {"biological_target": "Matrix metalloproteinase-14 (Homo sapiens, UniProt P50281)", "assay": "Inhibition of human recombinant MMP14"}}}
{"smiles": "NC(=O)CC1CCCc2sc3nc(C(=O)NCc4ccc5c(c4)NC(=O)CO5)[nH]c(=O)c3c21", "note": "(racemic)", "values": [{"measurement": "IC50", "setting": "[1]", "result": "> 10", "unit": "µM"}, {"measurement": "IC50", "setting": "[2]", "result": "> 10", "unit": "µM"}, {"measurement": "IC50", "setting": "[3]", "result": "> 2.5", "unit": "µM"}, {"measurement": "IC50", "setting": "[4]", "result": "> 10", "unit": "µM"}, {"measurement": "IC50", "setting": "[5]", "result": "> 10", "unit": "µM"}, {"measurement": "IC50", "setting": "[6]", "result": "> 10", "unit": "µM"}, {"measurement": "IC50", "setting": "[7]", "result": "< 0.025", "unit": "µM"}, {"measurement": "IC50", "setting": "[8]", "result": "> 10", "unit": "µM"}]}
